In PubChem BioAssay AID1919000 (Molecular Pharmacology Branch, DTP, NCI, 2023):
Values joined by “and” are separate entries in the source; they are usually repeats but may differ in a detail not shown here. Equal entries are not always repeated.

Test system: 653999-131-R-J2-PDC complex spheroids, growth % test/control
Assay: Anticancer human tumor 653999-131-R-J2-PDC patient-derived lung adenocarcinoma cell line growth inhibition [AhR]
Conditions: for viability, T/C: stronger effect = lower value
Procedure, shortened: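 Complex tumor spheroids co-cultured with HUVEC and human MSC stroma; AhR antagonists tested in combination with standard-of-care and investigational agents. Top concentration at or near clinical Cmax (else 10 microM), half-log dilutions; growth expressed as percent test/control.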

[1] = curve of first compound, second compound 0.1 µM
[2] = curve of first compound, second compound 0.316 µM
[3] = curve of first compound, second compound 1 µM
[4] = curve of first compound, second compound 3.16 µM
[5] = curve of first compound, second compound 10 µM
[6] = second compound 0.1 µM, first compound 0.0316 µM
[7] = second compound 0.1 µM, first compound 0.1 µM
[8] = second compound 0.1 µM, first compound 0.316 µM
[9] = second compound 0.1 µM, first compound 1 µM
[10] = second compound 0.1 µM, first compound 3.16 µM
[11] = second compound 0.1 µM, first compound 10 µM
[12] = second compound 0.316 µM, first compound 0.0316 µM
[13] = second compound 0.316 µM, first compound 0.1 µM
[14] = second compound 0.316 µM, first compound 0.316 µM
[15] = second compound 0.316 µM, first compound 1 µM
[16] = second compound 0.316 µM, first compound 3.16 µM
[17] = second compound 0.316 µM, first compound 10 µM
[18] = second compound 1 µM, first compound 0.0316 µM
[19] = second compound 1 µM, first compound 0.1 µM
[20] = second compound 1 µM, first compound 0.316 µM
[21] = second compound 1 µM, first compound 1 µM
[22] = second compound 1 µM, first compound 3.16 µM
[23] = second compound 1 µM, first compound 10 µM
[24] = second compound 3.16 µM, first compound 0.0316 µM
[25] = second compound 3.16 µM, first compound 0.1 µM
[26] = second compound 3.16 µM, first compound 0.316 µM
[27] = second compound 3.16 µM, first compound 1 µM
[28] = second compound 3.16 µM, first compound 3.16 µM
[29] = second compound 3.16 µM, first compound 10 µM
[30] = second compound 10 µM, first compound 0.0316 µM
[31] = second compound 10 µM, first compound 0.1 µM
[32] = second compound 10 µM, first compound 0.316 µM
[33] = second compound 10 µM, first compound 1 µM
[34] = second compound 10 µM, first compound 3.16 µM
[35] = second compound 10 µM, first compound 10 µM
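Further: spheroids exposed to agents for seven days.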
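Wherever viability, T/C is given: 100% = DMSO vehicle control viability.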

Structure (SMILES) | IC50 [1] [nM] | IC50 [2] [nM] | IC50 [3] [nM] | IC50 [4] [nM] | IC50 [5] [nM] | viability, T/C [6] [%] | viability, T/C [7] [%] | viability, T/C [8] [%] | viability, T/C [9] [%] | viability, T/C [10] [%] | viability, T/C [11] [%] | viability, T/C [12] [%] | viability, T/C [13] [%] | viability, T/C [14] [%] | viability, T/C [15] [%] | viability, T/C [16] [%] | viability, T/C [17] [%] | viability, T/C [18] [%] | viability, T/C [19] [%] | viability, T/C [20] [%] | also measured
NS(=O)(=O)OCC1CC(n2ccc3c(NC4CCc5ccccc54)ncnc32)CC1O (configuration not stated) + Cc1cncc(-c2nc(NCCc3c[nH]c4ccccc34)c3ncn(C(C)C)c3n2)c1 | 6200 | 1780 | > 10000 | 948 | < 31.6 | 108 | 106 | 101 | 71.4 | 50.4 | 49.8 | 113 | 112 | 106 | 52.2 | 48.4 | 47.2 | 112 | 120 | 108 | viability, T/C [21]: 49.3%; viability, T/C [22]: 50.5%; viability, T/C [23]: 51.2%; viability, T/C [24]: 117%; viability, T/C [25]: 104%; viability, T/C [26]: 90.5%; viability, T/C [27]: 46.8%; viability, T/C [28]: 40.5%; viability, T/C [29]: 43.3%; viability, T/C [30]: 44.4%; viability, T/C [31]: 38%; viability, T/C [32]: 39.4%; viability, T/C [33]: 22.3%; viability, T/C [34]: 18.5%; viability, T/C [35]: 19.4%
CCc1c2c(nc3ccc(O)cc13)-c1cc3c(c(=O)n1C2)COC(=O)[C@]3(O)CC | – | – | – | – | – | – | – | – | – | – | – | – | – | – | – | – | – | – | – | – | viability, T/C (compound 0.000949 µM): 79% and 89.9% and 76.4%; viability, T/C (compound 0.003 µM): 75.3% and 80.9% and 76.6%; viability, T/C (compound 0.00949 µM): 54.4% and 59.1% and 45.1%; viability, T/C (compound 0.03 µM): 38.8% and 44.1% and 33.3%; viability, T/C (compound 0.0949 µM): 29.4% and 35.4% and 27.7%; viability, T/C (compound 0.3 µM): 20.6% and 19.6% and 16.8%; IC50 (curve of compound): 14.6 nM and 22.1 nM and 9.27 nM
O=C(C=Cc1cccc(S(=O)(=O)Nc2ccccc2)c1)NO + Cc1ccccc1N=Nc1ccc(NC(=O)c2ccnn2C)c(C)c1 | 3900 | 3260 | 3560 | 3250 | 2860 | 110 | 105 | 91.4 | 94.7 | 56.6 | 11.3 | 92.8 | 94.8 | 88 | 90.6 | 51.1 | 9.29 | 99.7 | 101 | 93.2 | viability, T/C [21]: 80.2%; viability, T/C [22]: 54.9%; viability, T/C [23]: 10.3%; viability, T/C [24]: 101%; viability, T/C [25]: 93.1%; viability, T/C [26]: 99%; viability, T/C [27]: 81.5%; viability, T/C [28]: 51.4%; viability, T/C [29]: 10.1%; viability, T/C [30]: 82.6%; viability, T/C [31]: 85.5%; viability, T/C [32]: 76.7%; viability, T/C [33]: 71.8%; viability, T/C [34]: 47.8%; viability, T/C [35]: 7.74%
COc1cc(Nc2ncc3c(n2)-c2ccc(Cl)cc2C(c2c(F)cccc2OC)=NC3)ccc1C(=O)O + Cc1cncc(-c2nc(NCCc3c[nH]c4ccccc34)c3ncn(C(C)C)c3n2)c1 | > 10000 | > 10000 | > 10000 | > 10000 | > 10000 | 82.1 | 75.4 | 66.3 | 63.3 | 58.3 | 55.5 | 78.7 | 67.7 | 66.6 | 63.2 | 60.6 | 54.4 | 91 | 78.6 | 80 | viability, T/C [21]: 68.2%; viability, T/C [22]: 61.9%; viability, T/C [23]: 57.8%; viability, T/C [24]: 96.7%; viability, T/C [25]: 86.4%; viability, T/C [26]: 78.6%; viability, T/C [27]: 73.4%; viability, T/C [28]: 73.1%; viability, T/C [29]: 64.7%; viability, T/C [30]: 65.5%; viability, T/C [31]: 49.9%; viability, T/C [32]: 57.9%; viability, T/C [33]: 49.9%; viability, T/C [34]: 55.5%; viability, T/C [35]: 64.4%
Nc1ccn(C2OC(CO)C(O)C2(F)F)c(=O)n1 (configuration not stated) + Cc1cncc(-c2nc(NCCc3c[nH]c4ccccc34)c3ncn(C(C)C)c3n2)c1 | 211 | 222 | 378 | 554 | 166 | 67.8 | 57.9 | 45.5 | 38.2 | 34.4 | 33.4 | 70.9 | 60.1 | 45.5 | 38.4 | 38.5 | 35.4 | 80.1 | 66.8 | 50.1 | viability, T/C [21]: 42.4%; viability, T/C [22]: 38.5%; viability, T/C [23]: 33.8%; viability, T/C [24]: 82.4%; viability, T/C [25]: 70%; viability, T/C [26]: 56.5%; viability, T/C [27]: 43.5%; viability, T/C [28]: 39.6%; viability, T/C [29]: 41.9%; viability, T/C [30]: 61%; viability, T/C [31]: 55.8%; viability, T/C [32]: 42.4%; viability, T/C [33]: 43.4%; viability, T/C [34]: 33.3%; viability, T/C [35]: 33.2%
